In data set [1] the test system is cell membranes or tight junctions. It is filed as cell-based. The text has this: Diketopiperazine facilitate transcellular transport of biologically active agents across biological tissues however they are not penetration enhancers. Penetration enhancers are compounds that improve drug movement across biological tissues by disrupting cell membranes. Examples of penetration enhancers are surfactants and soaps. […] Diketopiperazine/insulin powder compositions are soluble at the physiological pH of the lung surface and dissolve rapidly after inhalation. Once dissolved, the DKP facilitates passive transcellular transport of the insulin.

Data set [2] in a line: Laser diffraction particle size analysis. It is filed as physicochemical. The text has this: The microparticles described in Examples 6 and 7 were subjected to laser diffraction particle size analysis (SympatecGmbH, Germany) (FIGS. 1A and 1B).

Where “and” joins values, the source holds several entries; their conditions need not be identical. Identical values can stand only once.

Consider `O=C(O)/C=C/C(=O)NCCCCC1NC(=O)C(CCCCNC(=O)/C=C/C(=O)O)NC1=O` (stereo not drawn) [FDKP, 3,6-di(fumaryl-4-aminobutyl)-2,5-diketopiperazine], for which, in data set [1], the cell viability result is on record as “does not compromise cell viability” and the “disruption of cell membranes or tight junctions” value is “does not disrupt cell membranes or tight junctions”.
On to `O=C([O-])C=CC(=O)NCCCCC1NC(=O)C(CCCCNC(=O)C=CC(=O)[O-])NC1=O.[Na+].[Na+]` (stereo not drawn) [Preparation A], for which, in data set [2], the “Fine Particle Fraction (<5.8 μm)” value was 91.46% and 86.01%; the “Particle Size 0.5-5 μm” value was 87.91% and 80.13%; the “Particle Size <3 μm” value is 53.39% and 47.37%; the “VMD (volume median diameter)” value was 3.70 μm and 3.76 μm. For the same compound, in data set [2], the X10 was 1.60 μm and 1.55 μm; the X16 is 1.44 μm and 1.36 μm; the X50 was 2.89 μm and 3.11 μm; the X84 is 4.60 μm and 5.53 μm. Besides, in data set [2], the X90 was 5.47 μm and 6.64 μm; the X99 is 19.20 μm and 14.04 μm.

(Values after patent publication US10912821B2, “Diketopiperazine salts for drug delivery and related methods” (MannKind Corporation, priority 2004, dated 2021).)
